Laboratory results published in US9682060B2, “Small molecules that induce intrinsic pathway apoptosis” (The Board of Trustees of the University of Illinois, priority 2015, dated 2017).
Entries after “also recorded” stand apart in the source; their conditions may differ.

Tests used:
HL-60 VCR = assay: Raptinal toxicity in various cell lines, 24 hour IC50; format: cell-based; conditions: HL60/VCR; HL-60 VCR (Human Leukemia Vincristine Resistant); 24 hour incubation; mean ± SD
Protocol: MTS Assay for Suspension Cells.
Serial dilutions of compound in 100% DMSO were added in triplicate (2 μL to each well) to empty wells of a 96-well plate. Suspension cells (HL-60, U-937, SKW 6.4, Jurkat W T, Jurkat CASP8^−/−, Jurkat FADD^−/−, Jurkat Bcl-2) cells in RPMI 1640 media were added to 96-well plates (198 μL containing 4×10^4 cells) and the cells incubated for 24 hours.

HFF-1 = assay: as above; format: cell-based; conditions: HFF-1 (Human Foreskin Fibroblast); 24 hour incubation; mean ± SD
Jurkat cells = assay: AV/PI assay in Jurkat cell lines (WT, caspase-8 deletion, FADD deletion, Bcl-2 upregulation); format: cell-based, Human; conditions: 10 μM, 2 hours
recombinant procaspase-3 = target: T1, recombinant procaspase-3 (Homo sapiens, UniProt P42574); assay: In vitro activation of procaspase-3; format: biochemical; conditions: up to 100 μM; 250 nM procaspase-3; Ac-DEVD-AFC cleavage
T1 construct: His tag (inferred from the nickel-NTA purification); made in house
Protocol: In Vitro Activation of Procaspase-3.
Procaspase-3 was expressed as described previously and purified with Qiagen nickel-NTA resin (Hsu et al., 2012). Increasing concentrations of Raptinal (0, 10, 25, 50 and 100 μM) and 25 μM 1541B were assessed for their capacity to enhance the activity of procaspase-3 over time. 250 nM procaspase-3 was treated with compounds in caspase activity buffer (50 mM HEPES, 50 mM KCl, 0.1 mM EDTA, 10 mM DTT, 0.01% Triton X-100, pH 7.4) and activity was assessed by cleavage of Ac-DEVD-AFC (50 μM) at designated time points.

B16-F10 melanoma = assay: Syngeneic subcutaneous tumor model; format: in vivo, C57BL/6 mice; conditions: 20 mg/kg IP once daily for 3 days
Protocol: All animal studies were performed with prior approval by the University of Illinois at Urbana-Champaign IACUC committee. […]. Seven days (for B16-F10) and six days (for 4T1) after inoculation, the mice were randomized based upon tumor size with 7 mice per group. Vehicle or compound was administered intraperitoneally as a corn oil DMSO suspension (300 μL of 10% DMSO in trans fat-free corn oil, 20 mg/kg) once daily for 3 consecutive days for B16-F10 and 4 consecutive days for 4T1 models. Tumor measurements were performed every other day using a caliper and tumor volume was calculated using the equation (0.5×l×w^2).

[1] = tested on: caspase-3/-7 activity in MIA PaCa-2 cells; assay: Whole cell caspase activity assay (Ac-DEVD-AFC); format: cell-based, Human; conditions: transfected MIA PaCa-2 cells; 10 μM for 1 hour
Protocol: Whole Cell Caspase Activity Assay.
The caspase activity assay was conducted in 96-well plates using transfected cells (see Example 3 for transfection protocol). Transfected cells were treated with 10 μM Raptinal for 1 hour, which corresponded to 40% of maximal caspase-3/-7 activity achievable by Raptinal. After treatment, the media was replaced with PBS (150 μL) and 50 μL of freshly made 4× caspase assay buffer (containing 20 μM Ac-DEVD-AFC) (Stennicke and Salvesen, 1997). After one hour incubation at room temperature (^˜22° C.) in the dark, the fluorescence of cleaved AFC was read on a spectrofluorometer (Ex: 380 nm, Em: 500 nm). The results were expressed as the relative caspase-3/-7 activity and normalized by designating the vehicle (0.5% DMSO) as 0% activity and Raptinal treatment as 100% activity.

U-937 cells = assay: Annexin V/PI cell viability analysis; conditions: U-937 cells; 10 μM; time course AV/PI, based on data in FIG. 1F
MCF10A = assay: Raptinal toxicity in various cell lines, 24 hour IC50; format: cell-based; conditions: MCF-10A; MCF10A (Human Breast Tissue); 24 hour incubation; mean ± SD
zebrafish embryos = assay: Apoptosis in zebrafish (secretory annexin V-YFP); format: in vivo; conditions: transgenic embryos 24 hours post fertilization; 10 μM for 1.5 hours
Protocol: Zebrafish experiments were performed as described (van Ham et al., 2010). TuAB zebrafish embryos were used for all experiments and were incubated at 28° C. in HEPES-buffered E3 zebrafish medium (pH 7.2) in the dark. Chemical treatments (10 μM Raptinal or vehicle, 1% v/v final DMSO) were performed in multi-well plates in buffered E3 medium. Images were taken using an AxioCam MRc camera and AxioVision 4.8 software (Zeiss). To quantify apoptosis, the number of secA5-YFP+ apoptotic cells was counted manually in embryos using a fluorescence dissection stereomicroscope (Discovery V8; Zeiss, Germany).

[2] = tested on: isolated mitochondria (U-937 cells); assay: In vitro cytochrome c release from isolated mitochondria; format: biochemical, Human; conditions: respiring and non-respiring conditions, 30 min, Western blot
Protocol: In Vitro Cytochrome c Release from Isolated Mitochondria.
U-937 cells (120×10^6) were washed twice in PBS and resuspended in 800 μL ice-cold lysis buffer (50 mM HEPES, 5 mM DTT, 5 mM PMSF, 25 mM MgCl2, protease cocktail inhibitor, pH 7.5) and the cells were passed through a 26 gauge needle 26 times using a 1 mL syringe until >95% cells were lysed as determined by trypan blue. Isolation buffer (0.25 M sucrose in lysis buffer pH 7.5) was added to the lysed cells (2.4 mL) and mixed by inversion. Debris was removed by centrifugation (500×g. 10 min at 4° C.) and the mitochondria in the supernatant were pelleted by centrifugation (10000×g, 5 min at 4° C.). The mitochondrial pellet was resuspended in washing buffer (2 mL of 50 mM HEPES, 250 mM KCl, 25 mM EDTA, pH 7.5) and incubated on ice for 2 min and centrifuged (12500×g, 5 min). The mitochondrial pellet was resuspended in either non-respiration (300 μL of 50 mM HEPES, 5 mM DTT, 5 mM PMSF, 25 mM MgCl2, protease inhibitor, 250 mM KCl, 25 mM EDTA, pH 7.5) or respiration buffer (300 μL of 50 mM HEPES, […], 5 mM ATP, 0.4 mM ADP, 25 mM sodium succinate, 10 mM potassium phosphate dibasic, pH 7.5). […]

T1 sequence (P42574 whole entry): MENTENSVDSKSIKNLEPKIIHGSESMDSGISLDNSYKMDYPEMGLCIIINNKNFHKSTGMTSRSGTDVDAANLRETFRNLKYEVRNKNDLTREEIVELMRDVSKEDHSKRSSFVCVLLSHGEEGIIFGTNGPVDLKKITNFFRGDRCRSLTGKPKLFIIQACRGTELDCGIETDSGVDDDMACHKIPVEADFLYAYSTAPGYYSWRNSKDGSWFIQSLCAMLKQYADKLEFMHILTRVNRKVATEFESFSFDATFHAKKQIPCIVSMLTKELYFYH

## O=CC1(C2(C=O)c3ccccc3-c3ccccc32)c2ccccc2-c2ccccc21 [Raptinal, [9,9′]bifluorenyl-9,9′-dicarbaldehyde]
HL-60 VCR
  IC50: 1600 ± 500 nM
HFF-1
  IC50: 3.3 ± 0.2 µM
Jurkat cells
  sensitivity of Jurkat Bcl-2 overexpressing versus wild type cells: less susceptible; also recorded: partial resistance
  sensitivity of Jurkat caspase-8−/− versus wild type cells: equally susceptible; also recorded: equally as sensitive
Recombinant procaspase-3
  direct activation of recombinant procaspase-3 (enzymatic activity): does not directly activate; also recorded: no increase in enzymatic activity
B16-F10 melanoma
  retardation of tumor mass relative to controls: 60%
  retardation of tumor volume relative to controls: 60%
[1]
  caspase-3/-7 activity as share of maximal activity achievable by Raptinal: 40%
U-937 cells
  Time to 50% death: 1.5 h
MCF10A
  IC50: 3000 ± 200 nM
Zebrafish embryos
  apoptotic cells: 80 cells per fish
[2]
  cytochrome c release from isolated mitochondria: does not induce cytochrome c release; also recorded: did not directly induce cytochrome c release
